Consider 6 molecules from paper PMC3838804, “Rapid Identification of Aldose Reductase Inhibitory Compounds from Perilla frutescens” (BioMed Research International, 2013).

Experiment [1] deals with rAR (rat lens aldose reductase) (Rattus norvegicus, UniProt P07943). As to the kind of experiment: Assay for rAR inhibitory activity (NADPH absorption decrease at 340 nm, DL-glyceraldehyde substrate). The format is biochemical. The note with it: for rAR inhibitory activity (in words): isolated compound; for IC50: read-out: IC50 on rAR (isolated compounds).
Procedure: Crude rAR was prepared as follows. Rat lenses were removed from closed male Sprague-Dawley rats weighing 250–280 g and frozen until required. The rat lens homogenate was prepared according to Hayman and Kinoshita with some modifications [20, 21]. […] The partially purified material was separated into 1.0 mL aliquots and stored at 40°C. rAR activity was assayed spectrophotometrically by measuring the decrease in NADPH absorption at 340 nm over a 4 min period with dl-glyceraldehyde substrate. Each 1.0 mL cuvette contained equal units of the enzyme, 0.10 M sodium phosphate buffer (pH 6.2), and 0.3 mM NADPH, with or without 10 mM substrate and an inhibitor [22, 23].
Experiment [2] deals with T1, rAR (aldose reductase) (Rattus norvegicus, UniProt P07943).
T1 construct: The rat lens homogenate was prepared according to Hayman and Kinoshita with some modifications; from tissue; host or cells: rat lens (male Sprague-Dawley rats)
In words: HPLC microfractionation combined with 96-well enzyme assay for rAR inhibition. The class given is biochemical. The note with it: HPLC microfractions of EtOAc soluble fraction (10 μL of 10 mg/mL injected), 96-well plate; hit limit 18.49%. As for the experimental part:
An automated fraction collector (Foxy 200; ISCO, Lincoln, NE, USA) coupled with HPLC equipment (Thermo Electron Spectra HPLC system; Thermo Separation Products, San Jose, CA, USA) was used to separate and collect compounds from extracts directly into 96-well plates (Nunc, Roskilde, Denmark) at 0.4 mL/well (Figure 1). […] The mobile phase, consisting of acetonitrile (ACN) and 0.1% aqueous trifluoroacetic acid (TFA), was used at a flow rate of 0.8 mL/min. The gradient elution program was 7.5–26.5% B (0–20 min), 26.5% B (20–30 min), 26.5–36% B (30–40 min), and 36–100% B (40–45 min). Injection volume was 10 μL at sample concentration 10 mg/mL and detection wavelength 280 nm. After collection, all fractions were evaporated to dryness using an EZ-2 plus evaporator (Gene Vac Ltd., Ipswich, UK).
The effect on rAR inhibitory activity (%) was calculated as the change in absorbance in a sample well versus the change in absorbance in a blank well (average, n = 12). Spontaneous hydrolysis was subtracted from the reaction rate. The hit limit was set at 3 standard deviations (SD) from the minimum AR inhibitory activity. Z′-factor, signal-to-background ratio (S/B), and signal-to-noise ratio(S/N) were used to evaluate the quality of the test: Z′ = 1[(3 × SDs + 3 × SDb)/|X s X b|], S/B = X s/X b, and S/N = (X s X b)/(SDs ^2 + SDb ^2)^1/2; X s and SDs are average and standard deviation of the signal, that is, absorption detected at the 8th measurement point in blank wells (n = 12) after adding the enzyme; X b and SDb are average and SD of the background, that is, absorption at the first measurement point in blank wells (n = 12) after adding the enzyme.
Crude rAR was prepared as follows. Rat lenses were removed from […] male Sprague-Dawley rats weighing 250–280 g and frozen until required. The rat lens homogenate was prepared according to Hayman and Kinoshita with some modifications. A partially purified enzyme with a specific activity of 6.5 U/mg was routinely used to test enzyme inhibition. The partially purified material was separated into 1.0 mL aliquots and stored at […]. rAR activity was assayed spectrophotometrically by measuring the decrease in NADPH absorption at 340 nm over a 4 min period with dl-glyceraldehyde substrate. Each 1.0 mL cuvette contained equal units of the enzyme, 0.10 M sodium phosphate buffer (pH 6.2), and 0.3 mM NADPH, with or without 10 mM substrate and an inhibitor [22, 23].

Where two headings read alike, the source gives them in different places.

Take `O=C(O)c1ccc(O)c(O)c1` [Compound 1, protocatechuic acid]: the “rAR inhibitory activity (in words)” value in experiment [1] is “did not exhibit inhibitory activity”. In experiment [2], the “rAR inhibitory activity in the corresponding wells” value stood at 20.46%.

As to `O=C(/C=C/c1ccc(O)c(O)c1)O[C@@H]1C[C@](O)(C(=O)O)C[C@@H](O)[C@H]1O` [Compound 2, chlorogenic acid], in experiment [1], the IC50 is 3.16 µM. The “rAR inhibitory activity in the corresponding wells” value in experiment [2] came out at 34.50%.

With `O=C(O)/C=C/c1ccc(O)c(O)c1` [Compound 3, caffeic acid], the “rAR inhibitory activity (in words)” value in experiment [1] is reported as “weak inhibitory activity”. For the same molecule, in experiment [2], the “rAR inhibitory activity in the corresponding wells” value turned out to be 21.31%.

As to `O=C(/C=C/c1ccc(O)c(O)c1)O[C@H](Cc1ccc(O)c(O)c1)C(=O)O` [Compound 4, rosmarinic acid], the IC50 in experiment [1] (concentration at 50% inhibition, crude rat lens AR, pH 6.2) is 2.77 µM. The “rAR inhibitory activity in the corresponding wells” value in experiment [2] amounted to 53.31%.

In the case of `O=c1cc(-c2ccc(O)c(O)c2)oc2cc(O)cc(O)c12` [Compound 5, luteolin], in experiment [2], the “rAR inhibitory activity in the corresponding wells” value is 29.46%.

As for `COC(=O)[C@@H](Cc1ccc(O)c(O)c1)OC(=O)/C=C/c1ccc(O)c(O)c1` [Compound 6, methyl rosmarinic acid], the IC50 in experiment [1] was 4.03 µM. In addition, the “rAR inhibitory activity in the corresponding wells” value in experiment [2] is recorded as 22.94%.
